US8106205B2, “N[S(4-aryl-triazol-3-yl)α-mercaptoacetyl]p-amino benzoic acids as HIV reverse transcriptase inhibitors” (priority 2004, dated 2012)
Read-outs that look alike come from different tables or passages of the source.

Assays:
wild type HIV RT = wild type HIV RT (Human immunodeficiency virus type 1 group M subtype B, UniProt P04585); experiment: IC50 against wild-type HIV reverse transcriptase; type: biochemical
Experimental: Compounds of the invention were tested against the wild-type and four mutant HIV reverse transcriptases. The results are listed in Table 1 and Table 2 as EC50 (nM) and IC50 (nM). In Tables 1 and 2, A represents <50 nM, B is between 50 and 100 nM, and C is >100 nM. ND is not determined. […]

wild-type (WT) HIV = experiment: EC50 against wild-type HIV; type: cell-based
[1] = Table 2, wild-type, read-out: EC50 WT
[2] = Human immunodeficiency virus 1, read-out: EC50 WT (nM)
[3] = Human immunodeficiency virus 1, read-out: EC50 WT

Which results are given for `NS(=O)(=O)c1ccc(NC(=O)CSc2nnc(Br)n2-c2c(Cl)cc(C3CCC3)c3ccccc23)c(Cl)c1` (single isomer, unassigned) [Compound 68]?
IC50 (wild type HIV RT; Table 2, wild-type RT): < 0.05 µM; EC50 (wild-type (WT) HIV; [1]): < 50 nM

Which IC50 (wild type HIV RT; Table 2, wild-type RT) does the source give for `NS(=O)(=O)c1ccc(NC(=O)CSc2nnc(Br)n2-c2c(Cl)cc(C3CCC3)c3ccccc23)c(Cl)c1` (single isomer, unassigned) [Compound 69] here?
The IC50 was under 0.05 µM.

What about the EC50 (wild-type (WT) HIV; [1]) of the same compound?
The EC50 was under 50 nM.

For `COc1ccc2c(C)ccc(-n3c(Br)nnc3SCC(=O)Nc3ccc(C(=O)O)cc3Cl)c2c1` [Compound 15], which IC50 (wild type HIV RT; Table 1, wild-type RT) is on record?
Its IC50 is under 0.05 µM.

What about the EC50 (wild-type (WT) HIV; [2]) of the same compound?
The EC50 was under 50 nM.

With `Cc1cc(C2CC2)cc(Cl)c1-n1c(Br)nnc1SCC(=O)Nc1ccc(C(=O)O)cc1Cl` [Compound 20] as the compound, how does the IC50 (wild type HIV RT; Table 1, wild-type RT) read?
Its IC50 is under 0.05 µM.

What about the EC50 (wild-type (WT) HIV; [2]) of the same compound?
The EC50 was under 50 nM.

Which IC50 (wild type HIV RT; Table 2, wild-type RT) does the source give for `CC(Sc1nnc(Br)n1-c1ccc(C2CC2)c2ccccc12)C(=O)Nc1ccc(S(N)(=O)=O)cc1Cl` (centres unmarked) [Compound 44] here?
Its IC50 is under 0.05 µM.

What about the EC50 (wild-type (WT) HIV; [3]) of the same compound?
Its EC50 is under 50 nM.

With `NS(=O)(=O)c1ccc(NC(=O)CSc2nnc(Br)n2-c2ccc(C3CC3)c3ccccc23)c(Cl)c1` [Compound 45] as the compound, how does the IC50 (wild type HIV RT; Table 2, wild-type RT) read?
The IC50 was under 0.05 µM.

And the EC50 (wild-type (WT) HIV; [1])?
The EC50 was under 50 nM.

What does the source list for `NS(=O)(=O)c1ccc(NC(=O)CSc2nnc(Br)n2-c2ccc(C3CC3)cc2)c(Cl)c1` [Compound 46]?
IC50 (wild type HIV RT; Table 2, wild-type RT): < 0.05 µM; EC50 (wild-type (WT) HIV; [3]): < 50 nM

For `CC(=O)OC(C)OC(=O)NS(=O)(=O)c1ccc(NC(=O)CSc2nnc(Br)n2-c2ccc(C3CC3)c3ccccc23)c(Cl)c1` (centres unmarked) [Compound 47], which IC50 (wild type HIV RT; Table 2, wild-type RT) is on record?
The IC50 was under 0.05 µM.

What about the EC50 (wild-type (WT) HIV; [1]) of the same compound?
The EC50 was under 50 nM.

Which IC50 (wild type HIV RT; Table 2, wild-type RT) does the source give for `CC(=O)NS(=O)(=O)c1ccc(NC(=O)CSc2nnc(Br)n2-c2ccc(C3CC3)c3ccccc23)c(Cl)c1` [Compound 48] here?
The IC50 was under 0.05 µM.

What about the EC50 (wild-type (WT) HIV; [1]) of the same compound?
The EC50 was under 50 nM.

With `CCc1ccc(-n2c(Br)nnc2SCC(=O)Nc2ccc(S(N)(=O)=O)cc2Cl)c2c1CCCC2` [Compound 50] as the compound, how does the IC50 (wild type HIV RT; Table 2, wild-type RT) read?
The IC50 was under 0.05 µM.

What about the EC50 (wild-type (WT) HIV; [1]) of the same compound?
The EC50 was under 50 nM.

What does the source list for `Cc1cc(S(N)(=O)=O)ccc1NC(=O)CSc1nnc(Br)n1-c1ccc(C)c2c1CCCC2` [Compound 51]?
IC50 (wild type HIV RT; Table 2, wild-type RT): < 0.05 µM; EC50 (wild-type (WT) HIV; [1]): < 50 nM

With `Cc1ccc2c(C)ccc(-n3c(Br)nnc3SCC(=O)Nc3ccc(S(N)(=O)=O)cc3Br)c2c1` [Compound 52] as the compound, how does the IC50 (wild type HIV RT; Table 2, wild-type RT) read?
Its IC50 is under 0.05 µM.

And the EC50 (wild-type (WT) HIV; [1])?
The EC50 was under 50 nM.

Which IC50 (wild type HIV RT; Table 2, wild-type RT) does the source give for `Cc1cc(C)c2ccccc2c1-n1c(CF)nnc1SCC(=O)Nc1ccc(S(N)(=O)=O)cc1Cl` [Compound 53] here?
The IC50 was under 0.05 µM.

And the EC50 (wild-type (WT) HIV; [1])?
Its EC50 is under 50 nM.

For `Cc1cc(C)c(-n2c(SCC(=O)Nc3ccc(S(N)(=O)=O)cc3Cl)nnc2C(F)(F)F)c2c1CCCC2` [Compound 54], which IC50 (wild type HIV RT; Table 2, wild-type RT) is on record?
Its IC50 is under 0.05 µM.

And the EC50 (wild-type (WT) HIV; [3])?
Its EC50 is under 50 nM.

For `CCCc1ccc(-n2c(Br)nnc2SCC(=O)Nc2ccc(S(N)(=O)=O)cc2Cl)c2ccccc12` [Compound 55], which IC50 (wild type HIV RT; Table 2, wild-type RT) is on record?
The IC50 was under 0.05 µM.

What about the EC50 (wild-type (WT) HIV; [1]) of the same compound?
Its EC50 is under 50 nM.

How did the IC50 (wild type HIV RT; Table 2, wild-type RT) turn out when `CCCc1ccc(-n2c(Br)nnc2SCC(=O)Nc2ccc(S(N)(=O)=O)cc2C)c2ccccc12` [Compound 56] was run?
The IC50 was under 0.05 µM.

What about the EC50 (wild-type (WT) HIV; [1]) of the same compound?
The EC50 was under 50 nM.

What does the source list for `CCc1ccc(-n2c(Br)nnc2SCC(=O)Nc2ccc(S(N)(=O)=O)cc2Cl)c2ccccc12` [Compound 57]?
IC50 (wild type HIV RT; Table 2, wild-type RT): < 0.05 µM; EC50 (wild-type (WT) HIV; [1]): < 50 nM

For `CCCC(=O)NS(=O)(=O)c1ccc(NC(=O)CSc2nnc(Br)n2-c2ccc(C3CC3)c3ccccc23)c(Cl)c1` [Compound 58], which IC50 (wild type HIV RT; Table 2, wild-type RT) is on record?
The IC50 was under 0.05 µM.

And the EC50 (wild-type (WT) HIV; [3])?
The EC50 was under 50 nM.

What does the source list for `N[C@@H](CC(=O)NS(=O)(=O)c1ccc(NC(=O)CSc2nnc(Cl)n2-c2ccc(C3CC3)c3ccccc23)c(Cl)c1)C(=O)O` [Compound 59]?
IC50 (wild type HIV RT; Table 2, wild-type RT): < 0.05 µM; EC50 (wild-type (WT) HIV; [1]): < 50 nM

Which IC50 (wild type HIV RT; Table 2, wild-type RT) does the source give for `NCCC[C@@H](N)C(=O)NS(=O)(=O)c1ccc(NC(=O)CSc2nnc(Br)n2-c2ccc(C3CC3)c3ccccc23)c(Cl)c1` [Compound 60] here?
The IC50 was under 0.05 µM.

What about the EC50 (wild-type (WT) HIV; [1]) of the same compound?
The EC50 was under 50 nM.

Which EC50 (wild-type (WT) HIV; [1]) does the source give for `Cc1cc(C2CC2)ccc1-n1c(Br)nnc1SCC(=O)Nc1ccc(S(N)(=O)=O)cc1Cl` [Compound 61] here?
The EC50 was under 50 nM.

What does the source list for `NCCC(N)C(=O)NS(=O)(=O)c1ccc(NC(=O)CSc2nnc(Br)n2-c2ccc(C3CC3)c3ccccc23)c(Cl)c1` (centres unmarked) [Compound 62]?
IC50 (wild type HIV RT; Table 2, wild-type RT): < 0.05 µM; EC50 (wild-type (WT) HIV; [1]): < 50 nM

With `N[C@@H](CC(=O)NS(=O)(=O)c1ccc(NC(=O)CSc2nnc(Br)n2-c2ccc(C3CC3)c3ccccc23)c(Cl)c1)C(=O)O` [Compound 63] as the compound, how does the IC50 (wild type HIV RT; Table 2, wild-type RT) read?
The IC50 was under 0.05 µM.

What about the EC50 (wild-type (WT) HIV; [1]) of the same compound?
The EC50 was under 50 nM.

Which IC50 (wild type HIV RT; Table 2, wild-type RT) does the source give for `N[C@@H](CCC(=O)NS(=O)(=O)c1ccc(NC(=O)CSc2nnc(Br)n2-c2ccc(C3CC3)c3ccccc23)c(Cl)c1)C(=O)O` [Compound 64] here?
Its IC50 is under 0.05 µM.

What about the EC50 (wild-type (WT) HIV; [1]) of the same compound?
Its EC50 is under 50 nM.

Which IC50 (wild type HIV RT; Table 2, wild-type RT) does the source give for `NS(=O)(=O)c1ccc(NC(=O)CSc2nnc(Cl)n2-c2ccc(C3CC3)c3ccccc23)c(Cl)c1` [Compound 65] here?
Its IC50 is under 0.05 µM.

And the EC50 (wild-type (WT) HIV; [1])?
Its EC50 is under 50 nM.

What does the source list for `NS(=O)(=O)c1ccc(NC(=O)CSc2nnc(Br)n2-c2ccc(C3CC3)cc2OC(F)(F)F)c(Cl)c1` [Compound 66]?
IC50 (wild type HIV RT; Table 2, wild-type RT): < 0.05 µM; EC50 (wild-type (WT) HIV; [3]): < 50 nM

What does the source list for `COCCC(=O)NS(=O)(=O)c1ccc(NC(=O)CSc2nnc(Br)n2-c2ccc(C3CC3)c3ccccc23)c(Cl)c1` [Compound 67]?
IC50 (wild type HIV RT; Table 2, wild-type RT): < 0.05 µM; EC50 (wild-type (WT) HIV; [3]): < 50 nM

With `Cc1cc(C2CC2)cc(Cl)c1-n1c(Br)nnc1SCC(=O)Nc1ccc(S(N)(=O)=O)cc1Cl` [Compound 70] as the compound, how does the IC50 (wild type HIV RT; Table 2, wild-type RT) read?
Its IC50 is under 0.05 µM.

What about the EC50 (wild-type (WT) HIV; [3]) of the same compound?
Its EC50 is under 50 nM.

Which IC50 (wild type HIV RT; Table 2, wild-type RT) does the source give for `O=C(O)CCC(=O)NS(=O)(=O)c1ccc(NC(=O)CSc2nnc(Br)n2-c2ccc(C3CC3)c3ccccc23)c(Cl)c1` [Compound 71] here?
The IC50 was under 0.05 µM.

And the EC50 (wild-type (WT) HIV; [1])?
The EC50 was 50 to 100 nM.

Which IC50 (wild type HIV RT; Table 2, wild-type RT) does the source give for `Cc1cc(S(N)(=O)=O)ccc1NC(=O)CSc1nnc(Br)n1-c1ccc(C2CCC2)c2ccccc12` [Compound 72] here?
Its IC50 is under 0.05 µM.

What about the EC50 (wild-type (WT) HIV; [3]) of the same compound?
The EC50 was under 50 nM.

What does the source list for `NS(=O)(=O)c1ccc(NC(=O)CSc2nnc(Br)n2-c2ccc(C3CCC3)c3ccccc23)c(Cl)c1` [Compound 73]?
IC50 (wild type HIV RT; Table 2, wild-type RT): < 0.05 µM; EC50 (wild-type (WT) HIV; [1]): < 50 nM

How did the IC50 (wild type HIV RT; Table 2, wild-type RT) turn out when `CCCCC(=O)NS(=O)(=O)c1ccc(NC(=O)CSc2nnc(Br)n2-c2ccc(C3CC3)c3ccccc23)c(Cl)c1` [Compound 74] was run?
Its IC50 is under 0.05 µM.

And the EC50 (wild-type (WT) HIV; [1])?
The EC50 was under 50 nM.

For `CCCCCC(=O)NS(=O)(=O)c1ccc(NC(=O)CSc2nnc(Br)n2-c2ccc(C3CC3)c3ccccc23)c(Cl)c1` [Compound 75], which IC50 (wild type HIV RT; Table 2, wild-type RT) is on record?
Its IC50 is under 0.05 µM.

And the EC50 (wild-type (WT) HIV; [1])?
The EC50 was under 50 nM.

`N#Cc1cccc2c(-n3c(SCC(=O)Nc4ccc(S(N)(=O)=O)cc4Cl)nnc3C(F)F)cccc12` [Compound 76] was tested. Which IC50 (wild type HIV RT; Table 2, wild-type RT) did it give?
The IC50 was 0.05 to 0.1 µM.

What about the EC50 (wild-type (WT) HIV; [3]) of the same compound?
Its EC50 is under 50 nM.

With `Cc1cc(S(N)(=O)=O)ccc1NC(=O)CSc1nnc(C(F)F)n1-c1cccc2c(C#N)cccc12` [Compound 77] as the compound, how does the IC50 (wild type HIV RT; Table 2, wild-type RT) read?
The IC50 was over 0.1 µM.
